Experimental data from patent publication US11649228B2, “Zinc indicators for cellular imaging” (The Board of Regents of the University of Texas System, priority 2018, dated 2023).

How the values were obtained:
[1] = Photochemical characterization of ZIGIRs in vitro (absorption, emission, quantum yield); assay type: physicochemical; details: for ε (extinction coefficient): in M-1·cm-1 (unit assumed); for ϕfl × ε (fluorescence brightness): in M^-1 cm^-1 (unit assumed)
Protocol: (§1) UV-Vis spectra were recorded in a 1-cm path quartz cell on a Shimadzu 2401 PC spectrometer. Fluorescence excitation and emission spectra were recorded on a Fluorolog 3 spectrometer (Jobin-Yvon Horiba, Edison, N.J.). Zinc titration was performed by adding ZIGIRs (0.5 μM final concentration) to buffered Zn^2+ solutions containing 100 mM HEPES (pH 7.4). Nitrilotriacetic acid (NTA, 10 mM) and varying concentrations of ZnSO4 (0-9 mM) were mixed to reach free Zn^2+ concentrations between 0.1 nM and 40 nM (Li et al., 2011). Zn^2+ concentrations above 40 nM were controlled by iminodiacetate (IDA, 10 mM) and varying amounts of ZnSO4 (0-9.7 mM) in 100 mM HEPES (pH 7.4; Sasaki et al., 2011). To determine Zn^2+ binding dissociation constants (Kd(Zn^2+)), the Zn^2+ titration data were fitted to the least square exponential equation (Prism 7). Fluorescence quantum yields of ZIGIRs at pH 7.5 were determined using rhodamine 6G as the reference (Φfl=0.94 in MeOH; Magde et al., 2002). An example in shown FIGS. 11A0B. To examine the pH sensitivity of ZIGIRs, the fluorescence emission spectra was recorded from pH 3-9.4 in either nominally Zn^2+-free solutions containing 5 mM iminodiacetate or in 25 μM ZnSO4 solutions. The pH was controlled with 10 mM pH buffers including chloroacetic acid (pH 3.1), acetate (pH 4.1 and 5.0), 2-morpholinoethanesulfonic acid (MES, pH 6.14), HEPES (pH 7.5) and N-cyclohexyl-2-aminoethanesulfonic acid (CHES, pH 9.4).

[2] = tested on: MIN-6 β cells; assay: Confocal imaging of ZIGIR-labeled live β cells; assay type: cell-based, mouse
Protocol: To assess ZIGIRs' ability for imaging granular Zn^2+ in living cells, an insulin secreting β cell (MIN-6 cell) was labeled with ZIGIRs. After dye loading (0.5 μM for 15 min) and washing, cells were imaged by confocal laser scanning microscopy (CLSM). […] After raising cellular Zn^2+ level by adding a Zn^2+ ionophore (pyrithione, 10 μM) and Zn^2+ (20 μM), a drastic enhancement of ZIGIR-2 signal was observed. […] Subsequent washout of zinc/pyrithione and addition of a Zn^2+ chelator TPEN depleted cellular Zn^2+ activity and dampened ZIGIR-2 intensity to nearly the background level (FIGS. 6D & 6E). Overall ZIGIR-2 intensity increased about 12-fold going from the low Zn^2+ (TPEN) to the high Zn^2+ state (Zn^2+/pyrithione), with a cell-to-cell variation of 12.04±4.8 fold (mean±SD, N=20 cells).
(§2) MIN-6 β cells were cultured as previously described (Li et al., 2011). HEK293 cells were cultured in DMEM medium supplemented with 10% FBS and 1% Penicillin/Streptomycin. T47D cells were cultured in RPMI-1640 medium supplemented with 10% FBS, 0.5% non-essential amino acids, 1 mM sodium pyruvate, 10 μg/mL geneticin and 0.01 mg/mL insulin. H1299 cells were cultured in RPMI-1640 medium supplemented with 10% FBS. All cells were maintained at 37° C. with 5% CO2. For cell imaging, cells were seeded in 35-mm petri dishes with glass bottoms (MatTek) and cultured for ˜24 hours to reach ˜50% confluence. Prior to labeling, cells were washed with a secretion assay buffer (SAB) containing 114 mM NaCl, 4.7 mM KCl, 1.2 mM KH2PO4, 2.5 mM CaCl2, 1.16 mM MgSO4, 3 mM glucose, and 20 mM Hepes (pH 7.4). Cells were then incubated with ZIGIRs (0.5-1 μM) in SAB at 37° C. for 15 min, and washed with SAB before imaging on a Zeiss LSM 780 confocal microscope using 561 nm laser for exciting ZIGIR-2 (Em 570-650 nm) and 514 nm laser for exciting ZIGIR-1 (Em 516-650 nm). LysoTracker Green (ThermoFisher Scientific) was used at 0.4 μM to label acidic organelles and was added to cells <5 min before imaging. […] ZIGIR colocalization with LysoTracker Green was analyzed and quantified with JACoP plugin of ImageJ.

[3] = tested on: T47D human breast cancer cells, H1299 lung carcinoma and HEK293 human embryonic kidney cells; assay: ZIGIR-2 imaging in cells not known to contain Zn^2+ rich secretory granules; assay type: cell-based
Protocol: To better understand the granular labeling specificity of ZIGIR-2, a number of mammalian cells were imaged that are not known to contain Zn^2+ rich secretory granules. These included T47D human breast cancer cells, H1299 lung carcinoma and HEK293 human embryonic kidney cells. […] However, after adding Zn/pyrithione, distinct ZIGIR-2 positive spots emerged in these cells (FIG. 8B). Subsequently, LysoTracker Green (LTG), an acidotropic fluorescent tracer based on BODIPY dye, was added to label acidic granules.
as §2, with “7.4).” for “7.4). Cells were then incubated with ZIGIRs (0.5-1 μM) in SAB at 37° C. for 15 min, and washed with SAB before imaging on a Zeiss LSM 780 confocal microscope using 561 nm laser for exciting ZIGIR-2 (Em 570-650 nm) and 514 nm laser for exciting ZIGIR-1 (Em 516-650 nm). LysoTracker Green (ThermoFisher Scientific) was used at 0.4 μM to label acidic organelles and was added to cells <5 min before imaging.”

[4] = tested on: human islet endocrine cells; assay: Flow cytometry analysis and sorting of human islet cells with ZIGIR-2; assay type: cell-based; details: ZIGIR-2, HPi2 and TM4SF4 labeling
Excerpt: Thus far the majority of studies on ZnT8 and Zn^2+ signaling have been carried out in mouse islet cells, and less is known about the expression of ZnT8 and Zn^2+ distribution in human islet endocrine cells. To analyze granular Zn^2+ activity in human islets by flow cytometry, the inventors dispersed human islets into single cells and sequentially labeled them with ZIGIR-2 and antibodies reactive towards human pancreatic endocrine cells and α-cells (FIG. 12A), including the HPi2 antibody (Dorrell et al., 2008) and an antibody of a tetraspanin family member protein TM4SF4 (Muraro et al., 2016), respectively. The islet endocrine cells (HPi2+, FIG. 13) contained a subset of cells showing high ZIGIR-2 signal and low TM4SF4 expression (P1 subset, FIG. 12B). Immunofluorescence analysis of the sorted cells confirmed that the P1 subset was highly enriched with human β-cells (91%), together with a small percent of δ-cells (FIG. 12C). […] They obtained similar flow cytometry results from different human donors and confirmed high enrichments of β-cell or α-cell in P1 or P2 subset (including P2a and P2b), respectively (FIG. 14). […] In addition to containing more glucagon granules, P2a cells might also express more ZnT8 protein than P2b. Future studies using more quantitative techniques such as western blot should help address the issue.

[5] = Zn^2+ titration of ZIGIRs by fluorescence emission (Hill plot); assay type: binding
Protocol: as §1

Structure (SMILES): CN(C)c1ccc2c(-c3ccc(NCCN(CCc4ccccn4)Cc4ccccn4)cc3C(=O)[O-])c3ccc(=[N+](C)C)cc-3oc2c1 [ZIGIR-2]
- absorption maximum [1]: around 555 nm
- emission maximum [1]: ~580 nm
- λabd^max ([1]; Zn^2+ bound): 549 nm
- λem^max ([1]; Zn^2+ bound): 580 nm
- ϕfl (fluorescence quantum yield) ([1]; Zn^2+ bound): 0.26
- ε (extinction coefficient) ([1]; Zn^2+ bound): 93,600
- ϕfl × ε (fluorescence brightness) ([1]; Zn^2+ bound): 24,336
- λabd^max ([1]; Zn^2+ free): 546 nm
- λem^max ([1]; Zn^2+ free): 572 nm
- ϕfl (fluorescence quantum yield) ([1]; Zn^2+ free): 0.008
- ε (extinction coefficient) ([1]; Zn^2+ free): 88,400
- ϕfl × ε (fluorescence brightness) ([1]; Zn^2+ free): 707
- stability of intensity of labeled granules on repetitive imaging ([2]; MIN6 cells, imaged every 5 sec over ~30 min): remains stable
- increase of intensity from low Zn^2+ (TPEN) to high Zn^2+ state (Zn^2+/pyrithione) ([2]; MIN-6 cells, overall): about 12 fold
- increase of intensity from TPEN to Zn^2+/pyrithione, cell-to-cell variation ([2]; mean±SD, N=20 cells): 12.04±4.8 fold
- overlap of ZIGIR-2 positive puncta with LysoTracker Green marked granules ([3]; after Zn/pyrithione): overlapped remarkably well
- fluorescence signal in basal SAB buffer ([3]; same dye loading and imaging conditions as MIN6 cells): barely any ZIGIR-2 fluorescence signal was detected
- α-cell purity of sorted P2a and P2b subsets [4]: > 95%
- β-cells in sorted P1 subset [4]: 91%
- FC (fold change in fluorescence brightness ϕfl×ε from Zn^2+-free to Zn^2+-bound state) [5]: 34
- Kd ([5]; 100 mM HEPES pH 7.4): 310 nM
- Kd ([5]; Table 2): 810 nM
- Zn^2+ response (fold change) ([5]; Table 2): 34×
